Article PMC5896373 (Molecular Pharmacology, 2018)

How the values were obtained:
P2X7R point mutant K110Y = target: T1, P2X7R point mutant K110Y (Homo sapiens, UniProt Q99572, I21V/K110Y/M24R/N16P/N25R/Q22R/R20V/S23N/T19I/Y26L); design: method as in Allsopp et al., 2017; conditions: ref Allsopp et al., 2017; cited from earlier work
T1 construct: expressed in transfected cells; host or cells: Xenopus laevis oocytes (cRNA injection)
T1 sequence (Q99572 1-595 N16P/T19I/R20V/I21V/Q22R/S23N/M24R/N25R/Y26L/K110Y): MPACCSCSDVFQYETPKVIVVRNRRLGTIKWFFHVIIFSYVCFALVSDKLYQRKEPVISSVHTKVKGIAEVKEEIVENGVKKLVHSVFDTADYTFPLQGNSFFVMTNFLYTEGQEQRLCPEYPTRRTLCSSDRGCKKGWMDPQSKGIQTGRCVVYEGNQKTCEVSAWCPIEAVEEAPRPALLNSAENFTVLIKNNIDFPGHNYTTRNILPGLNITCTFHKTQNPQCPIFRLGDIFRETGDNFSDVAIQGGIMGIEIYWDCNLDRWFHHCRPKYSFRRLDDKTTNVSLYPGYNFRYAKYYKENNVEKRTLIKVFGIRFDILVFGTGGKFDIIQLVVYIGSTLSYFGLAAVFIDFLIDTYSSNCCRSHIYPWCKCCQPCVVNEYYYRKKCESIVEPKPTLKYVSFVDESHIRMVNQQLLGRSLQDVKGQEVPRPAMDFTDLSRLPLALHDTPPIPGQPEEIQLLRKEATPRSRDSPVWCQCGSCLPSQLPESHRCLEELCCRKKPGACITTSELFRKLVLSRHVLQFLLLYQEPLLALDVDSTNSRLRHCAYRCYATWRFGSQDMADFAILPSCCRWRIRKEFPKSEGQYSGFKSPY

P2X7-2Nβ 73–79 deletion = target: T2, P2X7-2Nβ 73–79 deletion (Homo sapiens, UniProt Q99572, DEL73-79/I21V/M24R/N16P/N25R/Q22R/R20V/S23N/T19I/Y26L); design: method as in Allsopp et al., 2017; conditions: ref Allsopp et al., 2017; cited from earlier work
T2 construct: expressed in transfected cells; host or cells: Xenopus laevis oocytes (cRNA injection)
T2 sequence (Q99572 with tags, fused parts or gaps N16P/T19I/R20V/I21V/Q22R/S23N/M24R/N25R/Y26L/DEL73-79): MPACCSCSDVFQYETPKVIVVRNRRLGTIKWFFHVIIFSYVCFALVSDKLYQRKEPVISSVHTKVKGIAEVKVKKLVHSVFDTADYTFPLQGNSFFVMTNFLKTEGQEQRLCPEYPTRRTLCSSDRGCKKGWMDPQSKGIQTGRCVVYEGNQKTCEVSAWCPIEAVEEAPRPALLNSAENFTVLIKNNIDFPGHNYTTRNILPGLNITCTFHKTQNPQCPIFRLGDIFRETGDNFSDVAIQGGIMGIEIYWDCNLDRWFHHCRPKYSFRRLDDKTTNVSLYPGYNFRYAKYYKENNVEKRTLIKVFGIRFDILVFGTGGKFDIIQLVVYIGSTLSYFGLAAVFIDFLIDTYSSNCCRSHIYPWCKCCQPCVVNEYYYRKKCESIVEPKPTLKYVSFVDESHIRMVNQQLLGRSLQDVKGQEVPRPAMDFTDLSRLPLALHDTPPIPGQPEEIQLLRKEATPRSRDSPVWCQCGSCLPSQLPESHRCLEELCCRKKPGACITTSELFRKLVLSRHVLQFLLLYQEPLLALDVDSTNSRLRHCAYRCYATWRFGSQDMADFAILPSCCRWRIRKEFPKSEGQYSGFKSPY

[1] = target: T3, chimeric P2X7/1 receptor 210–217 (Homo sapiens, UniProt Q99572, G211E/I214K/I21V/INS213AAHM/L212V/M24R/N16P/N25R/P210E/Q22R/R20V/S23N/T19I/T217L/Y26L); design: method as in Allsopp et al., 2017; conditions: chimera 210–217; ref Allsopp et al., 2017; cited from earlier work
T3 construct: expressed in transfected cells; host or cells: Xenopus laevis oocytes (cRNA injection)
T3 sequence (Q99572 with tags, fused parts or gaps N16P/T19I/R20V/I21V/Q22R/S23N/M24R/N25R/Y26L/P210E/G211E/L212V/INS213AAHM/I214K/T217L): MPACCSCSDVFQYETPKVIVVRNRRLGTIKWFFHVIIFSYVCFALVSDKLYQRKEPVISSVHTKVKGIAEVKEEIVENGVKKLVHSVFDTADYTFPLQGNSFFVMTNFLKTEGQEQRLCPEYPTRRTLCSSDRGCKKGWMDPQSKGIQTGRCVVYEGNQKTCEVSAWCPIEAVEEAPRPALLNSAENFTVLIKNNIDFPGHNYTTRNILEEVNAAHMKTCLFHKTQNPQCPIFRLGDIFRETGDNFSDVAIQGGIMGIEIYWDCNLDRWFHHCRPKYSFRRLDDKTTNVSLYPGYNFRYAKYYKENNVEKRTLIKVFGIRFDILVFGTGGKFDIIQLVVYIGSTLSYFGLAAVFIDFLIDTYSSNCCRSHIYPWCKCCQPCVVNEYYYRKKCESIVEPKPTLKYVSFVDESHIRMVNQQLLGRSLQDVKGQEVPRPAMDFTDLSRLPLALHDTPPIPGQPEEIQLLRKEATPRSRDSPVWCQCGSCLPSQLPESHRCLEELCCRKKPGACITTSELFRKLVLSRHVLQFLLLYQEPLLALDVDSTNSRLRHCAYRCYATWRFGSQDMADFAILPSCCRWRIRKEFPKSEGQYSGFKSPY

P2X7R point mutant L97P = target: T4, P2X7R point mutant L97P (Homo sapiens, UniProt Q99572, I21V/L97P/M24R/N16P/N25R/Q22R/R20V/S23N/T19I/Y26L); test: cell-based
T4 construct: expressed in transfected cells; host or cells: Xenopus laevis oocytes (cRNA injection)
T4 sequence (Q99572 whole entry N16P/T19I/R20V/I21V/Q22R/S23N/M24R/N25R/Y26L/L97P): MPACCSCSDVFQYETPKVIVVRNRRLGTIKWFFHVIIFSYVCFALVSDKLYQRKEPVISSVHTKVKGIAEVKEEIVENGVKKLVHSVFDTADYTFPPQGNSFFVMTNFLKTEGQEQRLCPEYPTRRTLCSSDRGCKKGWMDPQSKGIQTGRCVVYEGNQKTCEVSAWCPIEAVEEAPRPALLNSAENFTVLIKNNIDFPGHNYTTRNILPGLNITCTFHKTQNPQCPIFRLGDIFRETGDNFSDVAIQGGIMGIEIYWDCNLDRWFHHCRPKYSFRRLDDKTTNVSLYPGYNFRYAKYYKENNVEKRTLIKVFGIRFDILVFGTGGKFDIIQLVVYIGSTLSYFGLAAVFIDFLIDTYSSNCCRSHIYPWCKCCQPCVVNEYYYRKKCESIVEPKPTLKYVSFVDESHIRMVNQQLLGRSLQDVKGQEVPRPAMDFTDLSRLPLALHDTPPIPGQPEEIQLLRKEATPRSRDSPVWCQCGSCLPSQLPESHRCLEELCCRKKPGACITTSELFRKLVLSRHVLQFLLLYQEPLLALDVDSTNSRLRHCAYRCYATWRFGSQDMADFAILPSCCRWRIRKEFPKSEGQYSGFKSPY
Procedure: (§1) The production of the correct mutations and absence of coding errors was determined by DNA sequencing (Automated ABI Sequencing Service, University of Leicester, UK). cRNA was generated for the mutants and 50 nl (50 ng) was injected into manually defoliculated stage V Xenopus laevis oocytes using an Inject+Matic microinjector (J.A. Gabay, Inject+Matic, Geneva, Switzerland). Injected oocytes were stored at 16°C in ND96 buffer [in millimolar concentrations, NaCl 96, KCl 2, CaCl2 1.8, MgCl2 1, sodium pyruvate 5, and HEPES 5 (pH 7.6) supplemented with 50 μg/ml gentamycin and 50 μg/ml tetracycline]. Three to seven days postinjection two-electrode voltage clamp recordings were made from oocytes bathed in divalent-free ND96 buffer (in millimolar concentrations, NaCl 96, KCl 2, sodium pyruvate 5, HEPES 5, and 0.1 flufenamic acid, pH 7.6). Oocytes were voltage clamped at a holding potential of −60 mV with a GeneClamp500B amplifier (Molecular Devices).
(§2) Inhibition by the antagonists was expressed as the percentage of the peak current amplitude of an EC90 concentration of ATP recorded before the application of antagonist (ATP gave reproducible responses to ATP in the absence of antagonist). Inhibition curves were fitted with the Hill equation (variable slope) using GraphPad Prism 6 (GraphPad Software, San Diego, CA). […]

[2] = system: P2X7R left flipper point mutant T283A; test: Two-electrode voltage clamp of ATP-evoked currents in Xenopus oocytes; type: cell-based, human
Procedure: Injected oocytes were stored at 16°C in ND96 buffer [in millimolar concentrations, NaCl 96, KCl 2, CaCl2 1.8, MgCl2 1, sodium pyruvate 5, and HEPES 5 (pH 7.6) supplemented with 50 μg/ml gentamycin and 50 μg/ml tetracycline]. Three to seven days postinjection two-electrode voltage clamp recordings were made from oocytes bathed in divalent-free ND96 buffer (in millimolar concentrations, NaCl 96, KCl 2, sodium pyruvate 5, HEPES 5, and 0.1 flufenamic acid, pH 7.6). Oocytes were voltage clamped at a holding potential of −60 mV with a GeneClamp500B amplifier (Molecular Devices).
Electrophysiological traces were digitized with a Digidata 1322A and collected using pCLAMP 8.2 software (Molecular Devices, Menlo Park, CA). An EC90 concentration of ATP was used to test antagonist sensitivity for the P2X7-2Nβ and mutant receptors [ATP sensitivity of the chimeras and mutants are reported in [Allsopp et al. (2017)]] to standardize for any changes in ATP sensitivity.
Inhibition by the antagonists was expressed as the percentage of the peak current amplitude of an EC90 concentration of ATP recorded before the application of antagonist (ATP gave reproducible responses to ATP in the absence of antagonist). […] Any significant differences from the P2X7-2Nβ control were calculated by one-way analysis of variance, followed by Dunnett’s test (using GraphPad Prism 6). […]

[3] = system: P2X7R left flipper point mutant D280A; test: as above; type: cell-based, human
Procedure: as §1, §2

Compound | effect on antagonist sensitivity (P2X7R point mutant K110Y) | fold decrease in antagonist sensitivity (P2X7-2Nβ 73–79 deletion) [fold] | effect on antagonist sensitivity [1] | IC50 (P2X7R point mutant L97P) [nM] | fold decrease in antagonist sensitivity/affinity relative to P2X7-2Nβ [2] [fold] | effect on antagonist sensitivity relative to P2X7-2Nβ [3]
Cl.Cl.O=C(CC12CC3CC(CC(C3)C1)C2)Nc1cccc2nc(NCCNCCO)ccc12 [AZ10606120, N-[2-[[2-[(2-hydroxyethyl)amino]ethyl]amino]-5-quinolinyl]-2-tricyclo[3.3.1.13,7]dec-1-ylacetamide dihydrochloride] | increased | 40 | no change |  |  | 
COc1ccc(CC(=O)NC(N=C(NC#N)Nc2cccc3ncccc23)C(C)(C)C)cc1OC (stereo not drawn) [A740003, N-[1-[[(cyanoamino)(5-quinolinylamino)methylene]amino]-2,2-dimethylpropyl]-3,4-dimethoxybenzeneacetamide] |  |  |  | 398 | ~4 | no effect
